Laboratory results from PubChem BioAssay (NCI).
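Five compound concentrations were applied to cells in 96-well plates for 48 hours; endpoints were derived by simple linear interpolation of the resulting dose-response curve. TGI denotes the concentration required for complete inhibition of growth.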

Experiments:
Assay in all cases: growth of human tumour cells (NCI), 48 h
SW-620 colon = tested on: SW-620 colon
U251 CNS = tested on: U251 CNS
HS 578T breast = tested on: HS 578T breast
SF-295 CNS = tested on: SF-295 CNS
NCI-H226 lung = tested on: NCI-H226 lung
T-47D breast = tested on: T-47D breast
SNB-75 CNS = tested on: SNB-75 CNS
CAKI-1 renal = tested on: CAKI-1 renal
HL-60(TB) leukemia = tested on: HL-60(TB) leukemia
UO-31 renal = tested on: UO-31 renal
HOP-92 NSCLC = tested on: HOP-92 NSCLC
SK-MEL-5 melanoma = tested on: SK-MEL-5 melanoma
MOLT-4 leukemia = tested on: MOLT-4 leukemia
PC-3 prostate = tested on: PC-3 prostate
DU-145 prostate = tested on: DU-145 prostate
A549 NSCLC = tested on: A549 NSCLC
LOX IMVI melanoma = tested on: LOX IMVI melanoma
MDA-MB-231 breast = tested on: MDA-MB-231 breast
A498 renal = tested on: A498 renal
M14 melanoma = tested on: M14 melanoma
SR leukemia = tested on: SR leukemia
IGROV1 ovarian = tested on: IGROV1 ovarian
HT29 colon = tested on: HT29 colon
SK-MEL-2 melanoma = tested on: SK-MEL-2 melanoma
OVCAR-3 ovarian = tested on: OVCAR-3 ovarian
EKVX NSCLC = tested on: EKVX NSCLC
CCRF-CEM leukemia = tested on: CCRF-CEM leukemia
SNB-19 CNS = tested on: SNB-19 CNS
NCI-H522 lung = tested on: NCI-H522 lung
RXF 393 renal = tested on: RXF 393 renal
OVCAR-8 ovarian = tested on: OVCAR-8 ovarian
TK-10 renal = tested on: TK-10 renal
NCI-H460 lung = tested on: NCI-H460 lung
HOP-62 NSCLC = tested on: HOP-62 NSCLC
MDA-N = tested on: MDA-N
OVCAR-5 ovarian = tested on: OVCAR-5 ovarian
786-0 renal = tested on: 786-0 renal
UACC-257 melanoma = tested on: UACC-257 melanoma
NCI/ADR-RES ovarian = tested on: NCI/ADR-RES ovarian
K-562 leukemia = tested on: K-562 leukemia
SF-268 CNS = tested on: SF-268 CNS
BT-549 breast = tested on: BT-549 breast
UACC-62 melanoma = tested on: UACC-62 melanoma
ACHN renal = tested on: ACHN renal
OVCAR-4 ovarian = tested on: OVCAR-4 ovarian
HCC-2998 colon = tested on: HCC-2998 colon
COLO 205 colon = tested on: COLO 205 colon
NCI-H23 lung = tested on: NCI-H23 lung
SF-539 CNS = tested on: SF-539 CNS
HCT-116 colon = tested on: HCT-116 colon
MCF7 breast = tested on: MCF7 breast
SK-OV-3 ovarian = tested on: SK-OV-3 ovarian
KM12 colon = tested on: KM12 colon
HCT-15 colon = tested on: HCT-15 colon
MALME-3M melanoma = tested on: MALME-3M melanoma
SN12C renal = tested on: SN12C renal
MDA-MB-435 = tested on: MDA-MB-435
RPMI-8226 leukemia = tested on: RPMI-8226 leukemia
SK-MEL-28 melanoma = tested on: SK-MEL-28 melanoma

COc1cc2c(c(OC)c1OC)-c1ccc(SC)c(=O)cc1[C@@H](OC(=O)c1ccncc1)CC2
TGI (SW-620 colon): > 100 µM | TGI (U251 CNS): > 100 µM | TGI (HS 578T breast): > 56.5 µM | TGI (SF-295 CNS): < 0.01 µM | TGI (NCI-H226 lung): < 0.01 µM | TGI (T-47D breast): > 100 µM | TGI (SNB-75 CNS): > 100 µM | TGI (CAKI-1 renal): 23.2 µM | TGI (HL-60(TB) leukemia): > 100 µM | TGI (UO-31 renal): 52.6 µM | TGI (HOP-92 NSCLC): > 100 µM | TGI (SK-MEL-5 melanoma): 15.4 µM | TGI (MOLT-4 leukemia): > 100 µM | TGI (PC-3 prostate): > 100 µM | TGI (DU-145 prostate): > 62.7 µM | TGI (A549 NSCLC): > 100 µM | TGI (LOX IMVI melanoma): > 35.7 µM | TGI (MDA-MB-231 breast): > 100 µM | TGI (A498 renal): 21.4 µM | TGI (M14 melanoma): 56.7 µM | TGI (SR leukemia): > 39.1 µM | TGI (IGROV1 ovarian): > 46.8 µM | TGI (HT29 colon): < 0.01 µM | TGI (SK-MEL-2 melanoma): > 100 µM | TGI (OVCAR-3 ovarian): 21.9 µM | TGI (EKVX NSCLC): > 100 µM | TGI (CCRF-CEM leukemia): 46.8 µM | TGI (SNB-19 CNS): > 100 µM | TGI (NCI-H522 lung): 39.5 µM | TGI (RXF 393 renal): > 82.9 µM | TGI (OVCAR-8 ovarian): > 100 µM | TGI (TK-10 renal): 55.3 µM | TGI (NCI-H460 lung): 11.2 µM | TGI (HOP-62 NSCLC): > 100 µM | TGI (MDA-N): > 100 µM | TGI (OVCAR-5 ovarian): > 100 µM | TGI (786-0 renal): > 40.3 µM | TGI (UACC-257 melanoma): 24 µM | TGI (NCI/ADR-RES ovarian): < 0.01 µM | TGI (K-562 leukemia): > 100 µM | TGI (SF-268 CNS): 49.3 µM | TGI (BT-549 breast): 22.8 µM | TGI (UACC-62 melanoma): > 32.1 µM | TGI (ACHN renal): 31.2 µM | TGI (OVCAR-4 ovarian): > 100 µM | TGI (HCC-2998 colon): 11.6 µM | TGI (COLO 205 colon): > 100 µM | TGI (NCI-H23 lung): > 100 µM | TGI (SF-539 CNS): < 0.01 µM | TGI (HCT-116 colon): > 35 µM | TGI (MCF7 breast): > 100 µM | TGI (SK-OV-3 ovarian): 43.7 µM

C[C@H]1CC[C@@H]2[C@@H](C)C[C@H]3[C@@H]4C(C)(C)OC(=O)[C@]4(C)C(=O)[C@@]23C1=O
TGI (SW-620 colon): > 100 µM | TGI (HS 578T breast): > 100 µM | TGI (SF-295 CNS): > 100 µM | TGI (NCI-H226 lung): > 100 µM | TGI (T-47D breast): 68.1 µM | TGI (SNB-75 CNS): > 100 µM | TGI (CAKI-1 renal): > 100 µM | TGI (HL-60(TB) leukemia): > 100 µM | TGI (HOP-92 NSCLC): > 100 µM | TGI (SK-MEL-5 melanoma): > 100 µM | TGI (MOLT-4 leukemia): > 100 µM | TGI (DU-145 prostate): > 100 µM | TGI (KM12 colon): > 100 µM | TGI (HCT-15 colon): > 100 µM | TGI (MALME-3M melanoma): > 100 µM | TGI (A549 NSCLC): > 100 µM | TGI (LOX IMVI melanoma): > 100 µM | TGI (MDA-MB-231 breast): > 100 µM | TGI (A498 renal): > 100 µM | TGI (SN12C renal): > 100 µM | TGI (M14 melanoma): > 100 µM | TGI (IGROV1 ovarian): > 100 µM | TGI (HT29 colon): > 100 µM | TGI (OVCAR-3 ovarian): > 100 µM | TGI (EKVX NSCLC): > 100 µM | TGI (CCRF-CEM leukemia): > 100 µM | TGI (SNB-19 CNS): > 100 µM | TGI (NCI-H522 lung): > 100 µM | TGI (MDA-MB-435): > 100 µM | TGI (RPMI-8226 leukemia): > 100 µM | TGI (SK-MEL-28 melanoma): > 100 µM | TGI (OVCAR-8 ovarian): > 100 µM | TGI (TK-10 renal): > 100 µM | TGI (NCI-H460 lung): > 100 µM | TGI (HOP-62 NSCLC): > 100 µM | TGI (MDA-N): > 100 µM | TGI (OVCAR-5 ovarian): > 100 µM | TGI (786-0 renal): > 100 µM | TGI (UACC-257 melanoma): > 100 µM | TGI (NCI/ADR-RES ovarian): > 100 µM | TGI (K-562 leukemia): > 100 µM | TGI (SF-268 CNS): > 100 µM | TGI (BT-549 breast): > 100 µM | TGI (UACC-62 melanoma): > 100 µM | TGI (ACHN renal): > 100 µM | TGI (OVCAR-4 ovarian): > 100 µM | TGI (HCC-2998 colon): > 100 µM | TGI (COLO 205 colon): > 100 µM | TGI (NCI-H23 lung): > 100 µM | TGI (SF-539 CNS): > 100 µM | TGI (HCT-116 colon): > 100 µM | TGI (MCF7 breast): > 100 µM | TGI (SK-OV-3 ovarian): > 100 µM
